One substance from paper PMC3237054 (2011) can be followed below.

One experiment addresses LPA1 (hLPA1) (Homo sapiens, UniProt Q92633). The experiment is classed as biochemical. The following applies: read-out: Ki; cell membranes.
A further experiment addresses T1, LPA3 (hLPA3) (Homo sapiens, UniProt Q9UBY5).
T1 sequence (Q9UBY5 1-353): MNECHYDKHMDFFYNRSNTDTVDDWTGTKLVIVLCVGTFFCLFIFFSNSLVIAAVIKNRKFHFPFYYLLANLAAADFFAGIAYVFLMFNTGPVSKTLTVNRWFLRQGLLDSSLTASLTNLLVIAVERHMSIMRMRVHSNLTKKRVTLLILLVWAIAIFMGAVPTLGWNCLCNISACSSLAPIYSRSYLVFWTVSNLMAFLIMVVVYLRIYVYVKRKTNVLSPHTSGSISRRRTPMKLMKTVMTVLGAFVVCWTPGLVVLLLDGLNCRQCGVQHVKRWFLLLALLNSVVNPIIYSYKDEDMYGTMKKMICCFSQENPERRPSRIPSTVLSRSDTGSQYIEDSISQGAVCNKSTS
Format: biochemical. As to conditions: read-out: Ki; cho cell membranes.

Chain of LPA1 (hLPA1) (Q92633 whole entry): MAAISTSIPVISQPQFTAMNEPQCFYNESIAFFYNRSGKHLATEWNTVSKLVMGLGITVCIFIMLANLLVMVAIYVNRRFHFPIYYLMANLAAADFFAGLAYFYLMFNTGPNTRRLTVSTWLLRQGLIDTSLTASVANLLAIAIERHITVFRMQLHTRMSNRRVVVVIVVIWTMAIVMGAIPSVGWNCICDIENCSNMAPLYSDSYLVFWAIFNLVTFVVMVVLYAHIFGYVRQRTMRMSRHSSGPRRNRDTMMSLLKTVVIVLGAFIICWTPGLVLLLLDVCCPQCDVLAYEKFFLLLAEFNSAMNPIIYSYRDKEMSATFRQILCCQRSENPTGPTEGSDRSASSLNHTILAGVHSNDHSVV

Consider VPC51299 [6.1], for which the figures for the Kb on LPA1 (hLPA1) and at LPA3 (hLPA3) were 143 nM and 512 nM, respectively.
